What was measured:
giant foxtail = test: Test C postemergence; format: in vivo, Setaria faberii; settings: for Plant response rating (0 to 100), Foxtail, Giant: postemergence; for Plant response rating, Foxtail, Giant: Postemergence, scale 0 to 100 (0 no effect, 100 complete control)
How it was run: (§1)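 Visual injury score versus untreated controls, 0 = no effect, 100 = complete control, taken 13 to 15 days after treatment in the greenhouse. Pre-emergence pots held loam/sand; post-emergence plants grew in sphagnum peat/vermiculite mix and were sprayed at the 1- to 4-leaf stage.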

johnsongrass [1] = test: Test C preemergence; format: in vivo, Sorghum halepense; settings: for Johnsongrass plant response rating: preemergence, scale 0 (no effect) to 100 (complete control)
How it was run: as §1

yellow nutsedge [2] = test: Test C postemergence; format: in vivo, Cyperus esculentus; settings: for Plant response rating (0 to 100), Nutsedge, Yellow: postemergence; for Plant response rating, Nutsedge, Yellow: Postemergence, scale 0 to 100 (0 no effect, 100 complete control)
How it was run: as §1

johnsongrass [3] = test: Test C postemergence; format: in vivo, Sorghum halepense; settings: for Plant response rating (0 to 100), Johnsongrass: postemergence; for Plant response rating, Johnsongrass: Postemergence, scale 0 to 100 (0 no effect, 100 complete control)
How it was run: as §1

wheat, winter [4] = test: Test C postemergence; format: in vivo, Triticum aestivum; settings: for Plant response rating (0 to 100), Wheat: postemergence; for Plant response rating, Wheat: Postemergence, scale 0 to 100 (0 no effect, 100 complete control)
How it was run: as §1

corn [5] = test: Test C postemergence; format: in vivo, Zea mays; settings: for Plant response rating (0 to 100), Corn: postemergence; for Plant response rating, Corn: Postemergence, scale 0 to 100 (0 no effect, 100 complete control)
How it was run: as §1

barnyardgrass = test: Test A postemergence; format: in vivo, Echinochloa crus-galli
How it was run: (§2)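 Visual injury scored 0–100 (100 = complete control) against untreated controls about 10 days after treatment in a greenhouse. Test chemicals, formulated with surfactant in non-phytotoxic solvent, were sprayed on soil preemergence or on 2-10 cm, one- to two-leaf plants postemergence.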

corn [6] = test: Test A postemergence; format: in vivo, Zea mays
How it was run: as §2

yellow nutsedge [7] = test: Test C preemergence; format: in vivo, Cyperus esculentus; settings: for Nutsedge, Yellow plant response rating: preemergence, scale 0 (no effect) to 100 (complete control)
How it was run: as §1

Italian ryegrass = test: Test C preemergence; format: in vivo, Lolium multiflorum; settings: for Ryegrass, Italian plant response rating: preemergence, scale 0 (no effect) to 100 (complete control)
How it was run: as §1

wheat, winter [8] = test: Test C preemergence; format: in vivo, Triticum aestivum; settings: for Wheat plant response rating: preemergence, scale 0 (no effect) to 100 (complete control)
How it was run: as §1

corn [9] = test: Test C preemergence; format: in vivo, Zea mays; settings: preemergence, scale 0 (no effect) to 100 (complete control)
How it was run: as §1

large (Lg) crabgrass [10] = test: Test C postemergence; format: in vivo, Digitaria sanguinalis; settings: for Plant response rating (0 to 100), Crabgrass, Large: postemergence; for Plant response rating, Crabgrass, Large: Postemergence, scale 0 to 100 (0 no effect, 100 complete control)
How it was run: as §1

velvetleaf = test: Test A postemergence; format: in vivo, Abutilon theophrasti; settings: 0 to 100 scale where 0 is no effect and 100 is complete control
How it was run: as §2

large (Lg) crabgrass [11] = test: Test A preemergence; format: in vivo, Digitaria sanguinalis
How it was run: as §2

[12] = Preemergence, 31 g ai/ha, scale 0 to 100, 0 no effect, 100 complete control
[13] = 125 g ai/ha, 0 to 100 scale where 0 is no effect and 100 is complete control
[14] = 500 g ai/ha, 0 to 100 scale, 0 no effect, 100 complete control

SMILES: N#Cc1cccc(Oc2ncc(Cl)cn2)c1-n1cc(Cl)cn1 [Compound 72]
- Plant response rating (0 to 100), Foxtail, Giant (giant foxtail; 125 g ai/ha): 10
- Plant response rating (0 to 100), Foxtail, Giant (giant foxtail; 250 g ai/ha): 65
- Plant response rating, Foxtail, Giant (giant foxtail; 31 g ai/ha, 13 to 15 days): 10
- Plant response rating, Foxtail, Giant (giant foxtail; 62 g ai/ha): 10
- Johnsongrass plant response rating (johnsongrass [1]; 62 g ai/ha): 55
- Johnsongrass plant response rating (johnsongrass [1]; 125 g ai/ha): 100
- Johnsongrass plant response rating (johnsongrass [1]; 250 g ai/ha): 100
- Plant response rating, Johnsongrass (johnsongrass [1]; [12]): 35
- Plant response rating (0 to 100), Nutsedge, Yellow (yellow nutsedge [2]; 125 g ai/ha): 0
- Plant response rating (0 to 100), Nutsedge, Yellow (yellow nutsedge [2]; 250 g ai/ha): 10
- Plant response rating, Nutsedge, Yellow (yellow nutsedge [2]; 31 g ai/ha, 13 to 15 days): 0
- Plant response rating, Nutsedge, Yellow (yellow nutsedge [2]; 62 g ai/ha): 0
- Plant response rating (0 to 100), Johnsongrass (johnsongrass [3]; 125 g ai/ha): 5
- Plant response rating (0 to 100), Johnsongrass (johnsongrass [3]; 250 g ai/ha): 25
- Plant response rating, Johnsongrass (johnsongrass [3]; 31 g ai/ha, 13 to 15 days): 0
- Plant response rating, Johnsongrass (johnsongrass [3]; 62 g ai/ha): 5
- Plant response rating (0 to 100), Wheat (wheat, winter [4]; 125 g ai/ha): 0
- Plant response rating (0 to 100), Wheat (wheat, winter [4]; 250 g ai/ha): 5
- Plant response rating, Wheat (wheat, winter [4]; 31 g ai/ha, 13 to 15 days): 0
- Plant response rating, Wheat (wheat, winter [4]; 62 g ai/ha): 0
- Plant response rating (0 to 100), Corn (corn [5]; 125 g ai/ha): 15
- Plant response rating (0 to 100), Corn (corn [5]; 250 g ai/ha): 20
- Plant response rating, Corn (corn [5]; 31 g ai/ha, 13 to 15 days): 5
- Plant response rating, Corn (corn [5]; 62 g ai/ha): 10
- Plant response rating, Barnyardgrass (barnyardgrass; [13]): 90
- Plant response rating, Barnyardgrass (barnyardgrass; [14]): 100
- Plant response rating, Corn (corn [6]; [13]): 50
- Plant response rating, Corn (corn [6]; [14]): 60
- Nutsedge, Yellow plant response rating (yellow nutsedge [7]; 62 g ai/ha): 0
- Nutsedge, Yellow plant response rating (yellow nutsedge [7]; 125 g ai/ha): 10
- Nutsedge, Yellow plant response rating (yellow nutsedge [7]; 250 g ai/ha): 80
- Plant response rating, Nutsedge, Yellow (yellow nutsedge [7]; [12]): 0
- Ryegrass, Italian plant response rating (Italian ryegrass; 62 g ai/ha): 10
- Ryegrass, Italian plant response rating (Italian ryegrass; 125 g ai/ha): 40
- Ryegrass, Italian plant response rating (Italian ryegrass; 250 g ai/ha): 80
- Plant response rating, Ryegrass, Italian (Italian ryegrass; [12]): 5
- Wheat plant response rating (wheat, winter [8]; 62 g ai/ha): 0
- Wheat plant response rating (wheat, winter [8]; 125 g ai/ha): 30
- Wheat plant response rating (wheat, winter [8]; 250 g ai/ha): 35
- Plant response rating, Wheat (wheat, winter [8]; [12]): 0
- Corn plant response rating (corn [9]; 62 g ai/ha): 25
- Corn plant response rating (corn [9]; 125 g ai/ha): 65
- Corn plant response rating (corn [9]; 250 g ai/ha): 65
- Plant response rating (0 to 100), Crabgrass, Large (large (Lg) crabgrass [10]; 125 g ai/ha): 55
- Plant response rating (0 to 100), Crabgrass, Large (large (Lg) crabgrass [10]; 250 g ai/ha): 60
- Plant response rating, Crabgrass, Large (large (Lg) crabgrass [10]; 31 g ai/ha, 13 to 15 days): 5
- Plant response rating, Crabgrass, Large (large (Lg) crabgrass [10]; 62 g ai/ha): 10
- Plant response rating, Velvetleaf (velvetleaf; 125 g ai/ha): 100
- Plant response rating, Velvetleaf (velvetleaf; 500 g ai/ha): 100
- Plant response rating, Crabgrass, Large (large (Lg) crabgrass [11]; [13]): 100
- Crabgrass, Large plant response rating (large (Lg) crabgrass [11]; 500 g ai/ha, 0 to 100 scale, 0 no effect, 100 complete control, approx. 10 days): 100

— patent US9695155B2, “Herbicidal substituted pyrimidinyloxy benzene compounds” (E. I. DU PONT DE NEMOURS AND COMPANY, priority 2013, dated 2017)
